Experimental data: patent US11919896B2, “[1,2,4]triazolo[1,5-a]pyridine compound as JAK inhibitor and use thereof” (Zhuhai United Laboratories Co., Ltd., priority 2018, dated 2024)
pIC50: −log10 of the molar value. “And” between values parts separate entries of the source, which are not always exact repeats. Equal entries are not always repeated. Where two headings read alike, the source gives them in different places. Marks after values point to notes of the source that are not given here.

Experiments:
TYK2 = TYK2 (Homo sapiens (Human), UniProt P29597); test: In vitro kinase activity test, TYK2(h) enzyme reaction; assay type: biochemical
TYK2, sequence (P29597 whole entry): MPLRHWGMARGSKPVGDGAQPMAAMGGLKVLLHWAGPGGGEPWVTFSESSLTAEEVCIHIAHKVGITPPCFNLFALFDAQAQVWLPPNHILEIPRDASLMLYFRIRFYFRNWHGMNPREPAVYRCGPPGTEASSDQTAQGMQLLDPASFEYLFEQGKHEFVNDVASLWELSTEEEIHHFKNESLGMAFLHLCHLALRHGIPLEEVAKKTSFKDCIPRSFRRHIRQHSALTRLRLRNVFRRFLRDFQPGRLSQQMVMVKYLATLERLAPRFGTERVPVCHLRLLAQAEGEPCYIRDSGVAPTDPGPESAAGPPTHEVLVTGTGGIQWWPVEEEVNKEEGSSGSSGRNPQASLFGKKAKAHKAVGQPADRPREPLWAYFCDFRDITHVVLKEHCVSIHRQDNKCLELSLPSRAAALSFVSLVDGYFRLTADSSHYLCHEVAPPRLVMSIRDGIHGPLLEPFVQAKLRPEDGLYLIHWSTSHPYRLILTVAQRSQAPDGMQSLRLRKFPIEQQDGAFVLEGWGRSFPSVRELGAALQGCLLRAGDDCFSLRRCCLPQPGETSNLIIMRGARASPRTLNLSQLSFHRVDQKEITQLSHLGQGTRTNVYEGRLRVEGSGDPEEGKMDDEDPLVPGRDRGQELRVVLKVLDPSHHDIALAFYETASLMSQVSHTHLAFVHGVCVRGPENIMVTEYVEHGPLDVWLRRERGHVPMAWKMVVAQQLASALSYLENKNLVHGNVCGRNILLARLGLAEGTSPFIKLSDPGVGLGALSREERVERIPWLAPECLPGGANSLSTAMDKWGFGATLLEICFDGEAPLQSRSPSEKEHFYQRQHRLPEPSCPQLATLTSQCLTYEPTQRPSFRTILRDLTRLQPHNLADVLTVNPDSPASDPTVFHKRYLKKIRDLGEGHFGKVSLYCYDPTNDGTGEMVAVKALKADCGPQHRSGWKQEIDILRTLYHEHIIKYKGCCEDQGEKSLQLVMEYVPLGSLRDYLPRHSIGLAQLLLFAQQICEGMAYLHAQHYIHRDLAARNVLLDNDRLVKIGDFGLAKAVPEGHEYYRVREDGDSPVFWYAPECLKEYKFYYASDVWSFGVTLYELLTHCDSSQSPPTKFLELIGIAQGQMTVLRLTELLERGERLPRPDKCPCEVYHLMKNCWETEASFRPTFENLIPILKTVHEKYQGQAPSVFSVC
Method: (§1) Recombinant human JAK1, JAK2, JAK3, Tyk2 protease, most of the apparatuses and reagents were supplied by Eurofins (UK).
(§2) All the compounds were prepared into 100% DMSO solution and the concentration reached final measured concentration of 50 times. The test compound was diluted by a 3-fold concentration gradient, and the final concentration was 9 concentrations from 10 μM to 0.001 μM. The content of DMSO in the detect reaction was 2%. The stock solution of this compound was added into wells as a first component, then the other components were added as the following detailed process.
Enzyme Reaction of TYK2(h)
(§3) Mixture of Mg/ATP was added to start reaction, which was stopped by adding 0.5% phosphoric acid after 40 minutes incubation.

JAK3 = JAK3 (Homo sapiens (Human), UniProt P52333); test: In vitro kinase activity test, JAK3(h) enzyme reaction; assay type: biochemical
JAK3, sequence (P52333 whole entry): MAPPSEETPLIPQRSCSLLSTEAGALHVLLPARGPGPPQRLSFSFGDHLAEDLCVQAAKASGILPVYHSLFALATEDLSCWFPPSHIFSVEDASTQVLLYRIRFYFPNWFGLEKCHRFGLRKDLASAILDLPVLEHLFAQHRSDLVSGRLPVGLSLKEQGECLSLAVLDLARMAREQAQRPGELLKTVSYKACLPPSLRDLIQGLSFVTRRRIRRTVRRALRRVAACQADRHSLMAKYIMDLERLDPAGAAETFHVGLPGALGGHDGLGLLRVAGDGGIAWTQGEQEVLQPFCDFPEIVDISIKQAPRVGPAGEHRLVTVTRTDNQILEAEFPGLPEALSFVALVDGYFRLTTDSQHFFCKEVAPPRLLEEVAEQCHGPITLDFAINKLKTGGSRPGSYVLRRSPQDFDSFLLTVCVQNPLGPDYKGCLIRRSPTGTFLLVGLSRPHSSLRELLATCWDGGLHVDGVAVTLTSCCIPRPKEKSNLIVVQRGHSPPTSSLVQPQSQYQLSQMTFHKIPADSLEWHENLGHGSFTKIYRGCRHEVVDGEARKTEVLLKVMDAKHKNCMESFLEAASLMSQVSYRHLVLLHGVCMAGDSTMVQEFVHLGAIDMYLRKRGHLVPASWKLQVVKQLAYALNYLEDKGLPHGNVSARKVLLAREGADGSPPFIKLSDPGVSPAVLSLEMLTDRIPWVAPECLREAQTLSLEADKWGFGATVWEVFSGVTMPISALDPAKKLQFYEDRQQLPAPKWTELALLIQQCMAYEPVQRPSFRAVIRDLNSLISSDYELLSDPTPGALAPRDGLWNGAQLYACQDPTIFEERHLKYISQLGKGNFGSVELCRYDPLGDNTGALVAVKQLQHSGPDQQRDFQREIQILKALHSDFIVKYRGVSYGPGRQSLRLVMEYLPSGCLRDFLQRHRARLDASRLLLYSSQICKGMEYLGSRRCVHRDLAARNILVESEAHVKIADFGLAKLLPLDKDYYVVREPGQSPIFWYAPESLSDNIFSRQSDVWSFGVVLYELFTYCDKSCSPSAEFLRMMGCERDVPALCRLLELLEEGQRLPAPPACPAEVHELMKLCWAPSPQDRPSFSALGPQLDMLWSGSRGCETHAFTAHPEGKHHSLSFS
Method: as §1, §2
Enzyme Reaction of JAK3(h)
as §3

JAK1 = JAK1 (Homo sapiens (Human), UniProt P23458); test: In vitro kinase activity test, JAK1(h) enzyme reaction; assay type: biochemical
JAK1, sequence (P23458 whole entry): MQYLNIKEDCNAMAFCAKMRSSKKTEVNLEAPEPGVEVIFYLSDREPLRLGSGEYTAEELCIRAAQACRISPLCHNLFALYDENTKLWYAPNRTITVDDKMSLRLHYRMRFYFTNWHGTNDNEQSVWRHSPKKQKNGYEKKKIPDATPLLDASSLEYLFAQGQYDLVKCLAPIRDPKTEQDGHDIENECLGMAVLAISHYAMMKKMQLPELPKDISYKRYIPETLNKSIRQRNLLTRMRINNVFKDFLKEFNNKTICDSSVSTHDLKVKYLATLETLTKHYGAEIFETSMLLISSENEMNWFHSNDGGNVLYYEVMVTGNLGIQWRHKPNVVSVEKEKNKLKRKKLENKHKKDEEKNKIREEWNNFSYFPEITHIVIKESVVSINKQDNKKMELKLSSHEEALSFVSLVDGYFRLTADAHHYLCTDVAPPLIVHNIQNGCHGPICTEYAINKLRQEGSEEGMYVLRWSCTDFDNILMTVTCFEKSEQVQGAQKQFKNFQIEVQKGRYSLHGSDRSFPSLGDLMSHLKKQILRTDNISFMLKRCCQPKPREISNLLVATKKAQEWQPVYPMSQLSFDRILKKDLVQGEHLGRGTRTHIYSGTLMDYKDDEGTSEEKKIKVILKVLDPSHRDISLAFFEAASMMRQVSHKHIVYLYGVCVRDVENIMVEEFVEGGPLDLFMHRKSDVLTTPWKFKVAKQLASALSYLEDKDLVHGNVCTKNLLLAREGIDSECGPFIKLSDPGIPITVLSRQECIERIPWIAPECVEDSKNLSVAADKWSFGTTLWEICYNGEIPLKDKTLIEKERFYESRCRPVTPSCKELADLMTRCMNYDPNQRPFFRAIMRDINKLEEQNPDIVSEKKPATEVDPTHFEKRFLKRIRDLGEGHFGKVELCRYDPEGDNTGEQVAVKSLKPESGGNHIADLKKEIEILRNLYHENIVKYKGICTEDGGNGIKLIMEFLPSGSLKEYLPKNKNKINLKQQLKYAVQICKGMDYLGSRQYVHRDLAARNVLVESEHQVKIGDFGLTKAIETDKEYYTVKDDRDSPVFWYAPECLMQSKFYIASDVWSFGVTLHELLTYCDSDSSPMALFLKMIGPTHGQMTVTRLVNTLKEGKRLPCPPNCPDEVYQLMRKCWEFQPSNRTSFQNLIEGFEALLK
Method: (§4) Experiment 1: In Vitro Test of Activities of Jak1, Jak2, Jak3, Tyk2 Kinases
as §1, §2
Enzyme Reaction of JAK1(h)
Mixture of Mg/ATP was added to start reaction, which was stopped by adding 0.5% phosphoric acid after 40 minutes incubation at room temperature.

[1] = tested on: adjuvant-induced arthritis rat model; conditions: AIA rats, 30 mg/kg p.o. bid
JAK2 = JAK2 (Homo sapiens (Human), UniProt O60674); test: In vitro kinase activity test, JAK2(h) enzyme reaction; assay type: biochemical
JAK2, sequence (O60674 whole entry): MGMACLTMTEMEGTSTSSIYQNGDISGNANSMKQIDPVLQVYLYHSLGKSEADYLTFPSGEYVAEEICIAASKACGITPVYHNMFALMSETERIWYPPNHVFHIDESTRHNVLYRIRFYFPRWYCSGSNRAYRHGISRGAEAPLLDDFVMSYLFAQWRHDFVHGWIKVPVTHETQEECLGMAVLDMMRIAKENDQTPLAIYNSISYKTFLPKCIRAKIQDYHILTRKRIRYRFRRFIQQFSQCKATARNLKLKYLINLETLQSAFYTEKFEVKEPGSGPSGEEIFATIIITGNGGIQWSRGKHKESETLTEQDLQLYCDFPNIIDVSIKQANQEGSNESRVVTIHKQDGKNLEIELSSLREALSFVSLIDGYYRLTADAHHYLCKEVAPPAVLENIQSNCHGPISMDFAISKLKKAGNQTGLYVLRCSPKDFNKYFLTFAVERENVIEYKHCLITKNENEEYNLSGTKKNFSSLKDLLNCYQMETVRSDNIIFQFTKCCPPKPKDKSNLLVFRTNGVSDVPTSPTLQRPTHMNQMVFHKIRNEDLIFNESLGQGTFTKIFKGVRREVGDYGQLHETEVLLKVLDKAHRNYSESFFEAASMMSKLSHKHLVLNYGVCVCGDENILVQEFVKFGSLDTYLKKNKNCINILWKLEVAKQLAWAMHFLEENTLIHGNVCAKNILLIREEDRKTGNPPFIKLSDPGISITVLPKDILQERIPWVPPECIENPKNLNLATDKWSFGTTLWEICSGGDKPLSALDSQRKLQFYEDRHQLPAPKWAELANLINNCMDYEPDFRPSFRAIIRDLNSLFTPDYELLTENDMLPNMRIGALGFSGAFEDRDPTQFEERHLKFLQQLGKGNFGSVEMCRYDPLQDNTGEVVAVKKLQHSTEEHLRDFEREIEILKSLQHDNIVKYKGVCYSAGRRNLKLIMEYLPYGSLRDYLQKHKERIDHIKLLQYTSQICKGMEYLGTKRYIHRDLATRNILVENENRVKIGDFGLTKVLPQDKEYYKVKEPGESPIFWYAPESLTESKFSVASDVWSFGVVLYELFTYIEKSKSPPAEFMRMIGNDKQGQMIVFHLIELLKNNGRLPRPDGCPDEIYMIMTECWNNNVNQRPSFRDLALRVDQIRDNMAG
Method: as §4, §1, §2
Enzyme Reaction of JAK2(h)
as §3

[2] = tested on: collagen-induced arthritis (CIA) in mice; assay type: in vivo, DBA/1 mice; design: key to Average clinical score: score 0-4 per limb, max 16 per animal
Method: Experiment 3: In Vivo Efficacy Study of Collagen-Induced Arthritis (CIA) in Mice
1. Type II Collagen/Complete Freund's Adjuvant Immune
Preparation of acetic acid: 2N acetic acid was diluted to 100 mM, filtered by 0.22 micron filter membrane, and stored at 4° C.
Bovine type 2 collagen (CII) was dissolved in 100 mM acetic acid solution, then stored overnight at 4° C. Final concentration of the collagen is 8 mg/ml.
Preparation of emulsion: the overnight stored CII solution was mixed with equal volume of complete Freund's adjuvant, and homogenized on ice on a high-speed homogenizer at 30,000 revolutions per minute for approximately 60 minutes until the solution forms a stable emulsion.
2. Induction of Arthritis:
Mice were randomly divided into different treatment groups. The day for the first immunization is recorded as day 0, and the subsequent days are marked in order.
DBA/1 mice were anesthetized with isoflurane and injected with […] prepared collagen emulsion (containing […] CII) subcutaneously (2-3 cm from the root of the tail). At day 21, the tail was injected with the same volume of collagen emulsion in the same way. The mice in the normal group was not immunized.
3. Designs of Administration and Dosages
At day 28, when average clinical score is about […] with moderate incidence were selected ad randomly divided into 5 treatment groups based on body weights and scores, with each group having 8 mice.
Dexamethasone (Dex.) was used as a reference drug for measuring whether the model was successfully established, with a dose of 0.3 mg/kg (a commonly used dose in a CIA model). […] They were administered twice a day for a total of 14 days.
4. Measuring of Incidence Index of Arthritis
Clinical observation: from 7 days before immunization to the 21st day after immunization, the basic health status and weight changes of DBA/1 mice was observed daily (recorded once a week). After the 22nd day, the health status, the incidence circumstances, and weight changes of the mice was observed every day (recorded at least three times a week) until the end of the experiment.
Clinical scoring: the incidence of the mice was observed every day after boosting the immune function. After the mice was attacked (showing clinical symptoms of arthritis), the incidence was scored from 0-4 as scoring standard according to different levels of the disease (redness, joint deformation). The highest score for each limb is 4, and the highest score for each animal is 16. The scoring was performed three times a week.
The experimental data is expressed as mean standard error (Mean SEM), and the area under the curve (AUC) is analyzed by one-way ANOVA. P<0.05 is considered to be significant.

[3] = CIA mice, 0.3 mg/kg p.o. qd, day 21
[4] = CIA mice, 0.3 mg/kg p.o. qd, day 24
[5] = CIA mice, 0.3 mg/kg p.o. qd, day 27
[6] = CIA mice, 0.3 mg/kg p.o. qd, day 28
[7] = CIA mice, 0.3 mg/kg p.o. qd, day 29
[8] = CIA mice, 0.3 mg/kg p.o. qd, day 31
[9] = CIA mice, 0.3 mg/kg p.o. qd, day 31, listed as Dex
[10] = CIA mice, 0.3 mg/kg p.o. qd, day 34
[11] = CIA mice, 0.3 mg/kg p.o. qd, day 36
[12] = CIA mice, 0.3 mg/kg p.o. qd, day 38
[13] = CIA mice, 0.3 mg/kg p.o. qd, day 41

Compound: N#CCN1CC2(CCC(c3cccc4nc(NC(=O)C5CC5)nn34)CC2)C1 [Compound 1-16]
- pIC50 (TYK2): 6.24
- pIC50 (JAK3): < 5.00
- pIC50 (JAK1): 6.94

Compound: O=C(Nc1nc2cccc(-c3ccc(CN4CCS(=O)(=O)CC4)cc3)n2n1)C1CC1 [Filgotinib]
- Inhibition rate of total pathological score [1]: 5%
- Clinical scoring, average ([1]; day 13): 6.0
- Feet volume, average ([1]; day 13): 1.9 mL
- Clinical scoring, average ([1]; day 15): 6.6
- Feet volume, average ([1]; day 15): 2.2 mL
- Clinical scoring, average ([1]; day 17): 6.3
- Feet volume, average ([1]; day 17): 2.0** mL
- Clinical scoring, average ([1]; day 20): 5.8**
- Feet volume, average ([1]; day 20): 1.9**** mL
- Clinical scoring, average ([1]; day 22): 5.5***
- Feet volume, average ([1]; day 22): 2.0**** mL
- Clinical scoring, average ([1]; day 24): 5.4****
- Feet volume, average ([1]; day 24): 2.0**** mL
- Feet volume, average ([1]; day 27): 1.91 mL and 1.9**** mL
- Pathology Scoring: Bone resorption ([1]; day 27, right hind leg): 3.6 ± 0.2
- Pathology Scoring: Pannus formation ([1]; day 27, right hind leg): 3.9 ± 0.1
- Pathology Scoring: Total score ([1]; day 27, right hind leg): 15.2±0.49 and 15.2 ± 0.5
- Pathology Scoring: articular injury ([1]; day 27, right hind leg): 3.7 ± 0.2

Compound: O=C(Nc1nc2cccc(C3CCC4(CC3)CCN(C(=O)[C@@H]3CC3(F)F)C4)n2n1)C1CC1 (some centres unmarked) [Compound 5-7]
- pIC50 (TYK2): 7.17
- pIC50 (JAK2): 6.49
- pIC50 (JAK3): 5.24
- pIC50 (JAK1): 7.51

Compound: O=C(Nc1nc2cccc([C@H]3CCC4(CCN(C(=O)[C@@H]5CC5(F)F)CC4)C3)n2n1)C1CC1 [Compound 6-7]
- pIC50 (TYK2): 6.08
- pIC50 (JAK3): 5.03
- pIC50 (JAK1): 7.20

Compound: O=C(Nc1nc2cccc(C3CCC4(CC3)CN(C(=O)[C@@H]3CC3(F)F)C4)n2n1)[C@H]1CC1(F)F [Compound 8-6]
- pIC50 (TYK2): 6.90
- pIC50 (JAK2): 6.96
- pIC50 (JAK3): 5.12
- pIC50 (JAK1): 7.85

Compound: O=C(Nc1nc2cccc([C@@H]3CCC4(C3)CN(C(=O)[C@@H]3CC3(F)F)C4)n2n1)C1CC1 [Compound 7-8]
- pIC50 (TYK2): 6.39
- pIC50 (JAK3): < 5.00
- pIC50 (JAK1): 6.75

Compound: O=C(Nc1nc2cccc([C@@H]3CCC4(CCN(C(=O)[C@@H]5CC5(F)F)CC4)C3)n2n1)C1CC1 [Compound 6-8]
- pIC50 (TYK2): 6.24
- pIC50 (JAK3): < 5.00
- pIC50 (JAK1): 6.42

Compound: C[C@@H]1C[C@H]2[C@@H]3CCC4=CC(=O)C=C[C@]4(C)[C@@]3(F)[C@@H](O)C[C@]2(C)[C@@]1(O)C(=O)CO [Dexamethasone]
- Inhibition rate (clinical score AUC vs blank group) ([2]; CIA mice, 0.3 mg/kg p.o. qd): 97.3%
- AUC ± SEM of clinical score (AUC of incidence) ([2]; CIA mice, 0.3 mg/kg p.o. qd, administration period): 1.38 ± 0.81
- Average clinical score [2, 3]: 0.00 ± 0.00
- Incidence of arthritis [2, 3]: 0%
- Average clinical score [2, 4]: 0.00 ± 0.00
- Incidence of arthritis [2, 4]: 0%
- Average clinical score [2, 5]: about 0.3
- Incidence of arthritis [2, 5]: 25%
- Average clinical score ([2]; CIA mice, 0.3 mg/kg p.o. qd, day 27, listed as Dex): 0.25 ± 0.16
- Average clinical score [2, 6]: 0.50 ± 0.27
- Incidence of arthritis [2, 6]: 38%
- Average clinical score [2, 7]: 0.25 ± 0.16
- Incidence of arthritis [2, 7]: 25%
- Average clinical score [2, 8]: 0
- Incidence of arthritis [2, 8]: 0%
- Average clinical score [2, 9]: 0.00 ± 0.00
- Incidence of arthritis [2, 9]: 0%
- Average clinical score [2, 10]: 0.00 ± 0.00
- Incidence of arthritis [2, 10]: 0%
- Average clinical score [2, 11]: 0.00 ± 0.00
- Incidence of arthritis [2, 11]: 0%
- Average clinical score [2, 12]: 0.00 ± 0.00
- Incidence of arthritis [2, 12]: 0%
- Average clinical score [2, 13]: 0.00 ± 0.00
- Incidence of arthritis [2, 13]: 0%
- Inhibition rate (clinical score AUC vs blank group) ([2]; CIA mice, 0.3 mg/kg p.o. qd, listed as Dex): 97.3%
- Effect on the weight of mice (comparison between groups) ([2]; mouse, in vivo, po, 0.3 mg/kg): largest weight loss

Compound: O=C(Nc1nc2cccc(C3CCC4(CC3)CCN(C(=O)[C@@H]3CC3(F)F)C4)n2n1)C1CC1 (some centres unmarked) [Compound 5-8]
- pIC50 (TYK2): 6.16
- pIC50 (JAK2): 6.10
- pIC50 (JAK3): 5.13
- pIC50 (JAK1): 7.12

Compound: N#CCCN1CC2(CCC(c3cccc4nc(NC(=O)C5CC5)nn34)CC2)C1 [Compound 1-17]
- pIC50 (TYK2): 6.43
- pIC50 (JAK3): < 5.00
- pIC50 (JAK1): 7.19

Compound: O=C(Nc1nc2cccc(C3CCC4(CC3)CN(C(=O)[C@@H]3CC3(F)F)C4)n2n1)[C@@H]1CC1(F)F [Compound 9-3]
- pIC50 (TYK2): 6.98
- pIC50 (JAK2): 6.53
- pIC50 (JAK3): < 5.00
- pIC50 (JAK1): 8.15

Compound: O=C(Nc1nc2cccc([C@H]3CCC4(C3)CN(C(=O)[C@@H]3CC3(F)F)C4)n2n1)C1CC1 [Compound 7-7]
- pIC50 (TYK2): 6.08
- pIC50 (JAK3): < 5.00
- pIC50 (JAK1): 7.20

Compound: CC(C)(C#N)C(=O)N1CC2(CCC(c3cccc4nc(NC(=O)C5CC5)nn34)CC2)C1 [Compound 1-15]
- pIC50 (TYK2): 6.97
- pIC50 (JAK3): 5.01
- pIC50 (JAK1): 7.70

Compound: N#CCC(=O)N1CC2(CCC(F)(c3cccc4nc(NC(=O)C5CC5)nn34)CC2)C1 [Compound 4-6]
- pIC50 (TYK2): 6.51
- pIC50 (JAK2): 5.70
- pIC50 (JAK3): 5.07
- pIC50 (JAK1): 6.77

Compound: N#CCN1CC2(CCC(c3cccc4nc(NC(=O)[C@@H]5CC5(F)F)nn34)CC2)C1 [Compound 9-6]
- pIC50 (TYK2): 5.86
- pIC50 (JAK2): 5.93
- pIC50 (JAK3): < 5.00
- pIC50 (JAK1): 6.36

Compound: N#CCN1CC2(CCC(c3cccc4nc(NC(=O)[C@H]5CC5(F)F)nn34)CC2)C1 [Compound 8-9]
- pIC50 (TYK2): 5.88
- pIC50 (JAK2): 5.44
- pIC50 (JAK3): < 5.00
- pIC50 (JAK1): 7.28

Compound: N#CCC(=O)N1CCC2(CCC(c3c(F)ccc4nc(NC(=O)C5CC5)nn34)CC2)CC1 [Compound 10-5]
- pIC50 (TYK2): 6.37
- pIC50 (JAK2): 6.09
- pIC50 (JAK3): 5.27
- pIC50 (JAK1): 6.47
